# Legend:
# velvetleaf = assay: Herbicidal activity (phytotoxicity, percent leaf area affected) of foliar sprays on velvetleaf; format: in vivo, Abutilon theophrasti (velvetleaf); conditions: for Phytotoxicity at 3 days: percent leaf area affected / Phytotoxicity at 5 days: percent leaf area affected / Phytotoxicity at 7 days: percent leaf area affected: alone or + NaSA 800 ppm
# From the text: (§1) In all examples, deionized ultra-pure water was used in preparing solutions. Spray solutions were used as soon as possible after mixing.
# (§2) In all herbicide applications, plants were sprayed with a sufficient volume to insure good coverage, to the point of runoff of the spray solution. […] For all treatments containing both an herbicide and a salicylate or SAR inducer, these materials were mixed and applied in a single spray solution (commonly known as a tank mix). After spraying, plants were moved to the greenhouse and arranged in randomized complete blocks. Plants were evaluated for herbicidal effects (phytotoxicity) after spraying by assessing damage according to percent leaf area affected. All the data were subject to an analysis of variance, and the mean separations were determined with Duncan's multiple range test at α=0.05.
# Xanthi-nc tobacco [1] = assay: Herbicidal activity on Xanthi-nc tobacco at three different temperatures; format: in vivo, Nicotiana tabacum (tobacco); conditions: for Phytotoxicity at 3 days: percent leaf area affected / Phytotoxicity at 5 days: percent leaf area affected / Phytotoxicity at 7 days: percent leaf area affected / Phytotoxicity at 10 days: percent leaf area affected: atrazine (Aatrex Nine-O) 250 ppm, NaSA 800 ppm
# From the text: as §1, §2
# Xanthi-nc tobacco [2] = assay: Herbicidal activity (phytotoxicity, percent leaf area affected) of foliar sprays on Xanthi-nc tobacco; format: in vivo, Nicotiana tabacum (tobacco)
# From the text: as §1, §2
# Xanthi-nc tobacco [3] = assay: Herbicidal activity on Xanthi-nc tobacco at three different light levels; format: in vivo, Nicotiana tabacum (tobacco); conditions: for Phytotoxicity at 5 days: percent leaf area affected / Phytotoxicity at 9 days: percent leaf area affected / Phytotoxicity at 13 days: percent leaf area affected: atrazine (Aatrex Nine-O) 250 ppm, NaSA 800 ppm
# From the text: as §1, §2
# [4] = test system: corn variety Silver Queen; assay: Foliar sprays on corn variety Silver Queen (crop damage)
# From the text: as §1, §2
# Atrazine is commonly used against weeds in corn and small grain crops.
# [5] = atrazine (Aatrex Nine-O) 50 ppm
# [6] = atrazine (Aatrex Nine-O) 100 ppm
# [7] = atrazine (Aatrex Nine-O) 250 ppm
# [8] = atrazine 100 ppm, alone or + NaSA 1600 ppm
# [9] = atrazine 250 ppm, alone or + NaSA 1600 ppm
# [10] = atrazine 500 ppm, alone or + NaSA 1600 ppm
# [11] = illumination 9.8 μmoles·m^−2·s^−1
# [12] = illumination 31.3 μmoles·m^−2·s^−1
compound,measurement,setting,value
"CCNc1nc(Cl)nc(NC(C)C)n1 [Atrazine, 6-chloro-N-ethyl-N′(1-methylethyl)-1,3,5-triazine-2,4-diamine]",Phytotoxicity at 3 days: percent leaf area affected,velvetleaf; [5],17.5 B percent
same,Phytotoxicity at 5 days: percent leaf area affected,velvetleaf; [5],20 B percent
same,Phytotoxicity at 7 days: percent leaf area affected,velvetleaf; [5],25 B percent
same,Phytotoxicity at 3 days: percent leaf area affected,velvetleaf; [6],35 C percent
same,Phytotoxicity at 5 days: percent leaf area affected,velvetleaf; [6],50 D percent
same,Phytotoxicity at 7 days: percent leaf area affected,velvetleaf; [6],45 C percent
same,Phytotoxicity at 3 days: percent leaf area affected,velvetleaf; [7],80 E percent
same,Phytotoxicity at 5 days: percent leaf area affected,velvetleaf; [7],97.5 EF percent
same,Phytotoxicity at 7 days: percent leaf area affected,velvetleaf; [7],95 D percent
same,Phytotoxicity at 3 days: percent leaf area affected,Xanthi-nc tobacco [1]; 15 C.,0 A percent
same,Phytotoxicity at 3 days: percent leaf area affected,Xanthi-nc tobacco [1]; 25 C.,0 A percent
same,Phytotoxicity at 3 days: percent leaf area affected,Xanthi-nc tobacco [1]; 35 C.,11.0 AB percent
same,Phytotoxicity at 5 days: percent leaf area affected,Xanthi-nc tobacco [1]; 15 C.,0 A percent
same,Phytotoxicity at 5 days: percent leaf area affected,Xanthi-nc tobacco [1]; 25 C.,0.6 A percent
same,Phytotoxicity at 5 days: percent leaf area affected,Xanthi-nc tobacco [1]; 35 C.,73.4 C percent
same,Phytotoxicity at 7 days: percent leaf area affected,Xanthi-nc tobacco [1]; 15 C.,5.9 B percent
same,Phytotoxicity at 7 days: percent leaf area affected,Xanthi-nc tobacco [1]; 25 C.,25 C percent
same,Phytotoxicity at 7 days: percent leaf area affected,Xanthi-nc tobacco [1]; 35 C.,97.8 C percent
same,Phytotoxicity at 10 days: percent leaf area affected,Xanthi-nc tobacco [1]; 15 C.,39.1 B percent
same,Phytotoxicity at 10 days: percent leaf area affected,Xanthi-nc tobacco [1]; 25 C.,84.4 B percent
same,Phytotoxicity at 10 days: percent leaf area affected,Xanthi-nc tobacco [1]; 35 C.,100 C percent
same,Phytotoxicity at 2 days: percent leaf area affected,"Xanthi-nc tobacco [2]; 2 days, atrazine (Aatrex Nine-O) 100 ppm, NaSA 800 ppm, acibenzolar-S-methyl 187 ppm, alone or tank-mixed as labelled",1 A percent
same,Phytotoxicity at 3 days: percent leaf area affected,"Xanthi-nc tobacco [2]; atrazine (Aatrex Nine-O) 100 ppm, NaSA 800 ppm, acibenzolar-S-methyl 187 ppm, alone or tank-mixed as labelled",17 B percent
same,Phytotoxicity at 7 days: percent leaf area affected,"Xanthi-nc tobacco [2]; 7 days, atrazine (Aatrex Nine-O) 100 ppm, NaSA 800 ppm, acibenzolar-S-methyl 187 ppm, alone or tank-mixed as labelled",93.9 B percent
same,Phytotoxicity at 3 days: percent leaf area affected,Xanthi-nc tobacco [2]; [8],1.5 A percent
same,Phytotoxicity at 6 days: percent leaf area affected,Xanthi-nc tobacco [2]; [8],66.2 C percent
same,Phytotoxicity at 3 days: percent leaf area affected,Xanthi-nc tobacco [2]; [9],4.3 AB percent
same,Phytotoxicity at 6 days: percent leaf area affected,Xanthi-nc tobacco [2]; [9],77.5 D percent
same,Phytotoxicity at 3 days: percent leaf area affected,Xanthi-nc tobacco [2]; [10],9.5 B percent
same,Phytotoxicity at 6 days: percent leaf area affected,Xanthi-nc tobacco [2]; [10],82.5 DE percent
same,Phytotoxicity at 5 days: percent leaf area affected,Xanthi-nc tobacco [3]; illumination 0 (Dark),0.6 AB percent
same,Phytotoxicity at 5 days: percent leaf area affected,Xanthi-nc tobacco [3]; [11],0 A percent
same,Phytotoxicity at 5 days: percent leaf area affected,Xanthi-nc tobacco [3]; [12],1.9 AB percent
same,Phytotoxicity at 9 days: percent leaf area affected,Xanthi-nc tobacco [3]; illumination 0 (Dark),0.6 A percent
same,Phytotoxicity at 9 days: percent leaf area affected,Xanthi-nc tobacco [3]; [11],5.3 AB percent
same,Phytotoxicity at 9 days: percent leaf area affected,Xanthi-nc tobacco [3]; [12],67.2 B percent
same,Phytotoxicity at 13 days: percent leaf area affected,"Xanthi-nc tobacco [3]; illumination 0 (Dark), crop oil control 35.9",28.1 A percent
same,Phytotoxicity at 13 days: percent leaf area affected,Xanthi-nc tobacco [3]; [11],76.5 B percent
same,Phytotoxicity at 13 days: percent leaf area affected,Xanthi-nc tobacco [3]; [12],100%
same,Percent leaf area affected at 3 days,"[4]; atrazine (Aatrex Nine-O) 100 ppm, alone or + NaSA 800 ppm",0 A Percent
same,Percent leaf area affected at 3 days,"[4]; atrazine (Aatrex Nine-O) 500 ppm, alone or + NaSA 800 ppm",0 A Percent
same,Percent leaf area affected at 3 days,"[4]; atrazine (Aatrex Nine-O) 1000 ppm, alone or + NaSA 800 ppm",0 A Percent
"O=C([O-])c1ccccc1O.[Na+] [NaSA, sodium salicylate]",Effect of salicylate on Aatrex Nine-O herbicidal activity (in words),velvetleaf; velvetleaf,potentiates Aatrex Nine-O®
same,Effect of salicylate on atrazine herbicidal activity (in words),Xanthi-nc tobacco [1]; range of temperatures (15-35 C),potentiated atrazine herbicidal activity under a range of temperatures
same,Effect of salicylate on Basagran (bentazon) herbicidal activity (in words),Xanthi-nc tobacco [2]; tobacco,potentiates Basagran®
same,Effect of added salicylate on atrazine herbicidal activity (in words),"Xanthi-nc tobacco [2]; tobacco, apparent 3 days after application, persisted through 6 days",increased atrazine herbicidal activity
same,Effect of added salicylate on atrazine herbicidal activity (in words),Xanthi-nc tobacco [3]; darkness,conferred some activity in darkness
same,Effect of added salicylate on atrazine herbicidal activity (in words),Xanthi-nc tobacco [3]; low light,potentiated atrazine herbicidal activity under low light
same,Percent leaf area affected at 3 days,[4]; NaSA 800 ppm alone,0 A Percent

# From patent US20040116293A1, “Enhanced herbicide composition” (priority 2002, published 2004)
